Assay results as given in ChEMBL document CHEMBL3885881, “DrugMatrix”.

Species: Rattus norvegicus
Assay: DrugMatrix - Regimen: Daily Repeat
Assay type: toxicity, organism-based, Sprague-Dawley
Design: regimen Daily Repeat, gender Male, age 6-8 weeks
Conditions: in vivo, iv, vehicle 100 % SALINE; for ABSOLUTE BASOPHIL / ABSOLUTE EOSINOPHIL / ABSOLUTE LYMPHOCYTE / ABSOLUTE MONOCYTE / ABSOLUTE SEGMENTED NEUTROPHIL / BASOPHIL / EOSINOPHIL / ERYTHROCYTE COUNT / HEMATOCRIT / HEMOGLOBIN / LEUKOCYTE COUNT / LYMPHOCYTE / MEAN CORPUSCULAR HEMOGLOBIN / MEAN CORPUSCULAR HEMOGLOBIN CONCENTRATION / MEAN CORPUSCULAR VOLUME / MONOCYTE / NEUTROPHIL / NUCLEATED RED BLOOD CELLS / PLATELET COUNT: tissue Blood; for ALANINE AMINOTRANSFERASE / ALBUMIN / ALKALINE PHOSPHATASE / ASPARTATE AMINOTRANSFERASE / BLOOD UREA NITROGEN / CARBON DIOXIDE / CHLORIDE / CHOLESTEROL / CREATINE PHOSPHOKINASE / CREATININE / GLUCOSE / LACTATE DEHYDROGENASE / LIPASE / PHOSPHORUS / POTASSIUM / SODIUM / TOTAL BILIRUBIN / TOTAL PROTEIN / URIC ACID: tissue Plasma
[1] = 0.08 mg/kg, 120 h, dose level Low, time 5 day
[2] = 0.3 mg/kg, 72 h, dose level High, time 3 day
[3] = 0.3 mg/kg, 120 h, dose level High, time 5 day

CC[C@]1(O)C[C@@H]2CN(CCc3c([nH]c4ccccc34)[C@@](C(=O)OC)(c3cc4c(cc3OC)N(C)[C@H]3[C@@](O)(C(=O)OC)[C@H](OC(C)=O)[C@]5(CC)C=CCN6CC[C@]43[C@@H]65)C2)C1 [VINBLASTINE]
ABSOLUTE BASOPHIL [1]: 0 CELLS/uL | ABSOLUTE EOSINOPHIL [1]: 0 CELLS/uL | ABSOLUTE LYMPHOCYTE [1]: 7180.33 CELLS/uL | ABSOLUTE MONOCYTE [1]: 26.33 CELLS/uL | ABSOLUTE SEGMENTED NEUTROPHIL [1]: 293.33 CELLS/uL | BASOPHIL [1]: 0% | EOSINOPHIL [1]: 0% | ERYTHROCYTE COUNT [1]: 5.15 x10E6/uL | HEMATOCRIT [1]: 32.43% | HEMOGLOBIN [1]: 13 G/DL | LEUKOCYTE COUNT [1]: 7.5 x10E3/uL | LYMPHOCYTE [1]: 95.67% | MEAN CORPUSCULAR HEMOGLOBIN [1]: 25.27 pg | MEAN CORPUSCULAR HEMOGLOBIN CONCENTRATION [1]: 40.07 G/DL | MEAN CORPUSCULAR VOLUME [1]: 63.1 fL | MONOCYTE [1]: 0.33% | NEUTROPHIL [1]: 4% | NUCLEATED RED BLOOD CELLS [1]: 0 /100WBC | PLATELET COUNT [1]: 1437 x10E3/uL | ALANINE AMINOTRANSFERASE [1]: 44 u/L | ALBUMIN [1]: 3.93 G/DL | ALKALINE PHOSPHATASE [1]: 340.67 u/L | ASPARTATE AMINOTRANSFERASE [1]: 88.67 u/L | BLOOD UREA NITROGEN [1]: 16.67 mg/dL | CARBON DIOXIDE [1]: 28 mmol/L | CHLORIDE [1]: 101.33 MEQ/L | CHOLESTEROL [1]: 69.67 mg/dL | CREATINE PHOSPHOKINASE [1]: 599 u/L | CREATININE [1]: 0.2 mg/dL | GLUCOSE [1]: 212 mg/dL | LACTATE DEHYDROGENASE [1]: 334.67 u/L | LIPASE [1]: 10.67 u/L | PHOSPHORUS [1]: 13.3 mg/dL | POTASSIUM [1]: 5.71 MEQ/L | SODIUM [1]: 141.27 MEQ/L | TOTAL BILIRUBIN [1]: 0.2 mg/dL | TOTAL PROTEIN [1]: 5.83 G/DL | URIC ACID [1]: 1.77 mg/dL | ABSOLUTE BASOPHIL [2]: 0 CELLS/uL | ABSOLUTE EOSINOPHIL [2]: 0 CELLS/uL | ABSOLUTE LYMPHOCYTE [2]: 5650.33 CELLS/uL | ABSOLUTE MONOCYTE [2]: 34.67 CELLS/uL | ABSOLUTE SEGMENTED NEUTROPHIL [2]: 381.67 CELLS/uL | BASOPHIL [2]: 0% | EOSINOPHIL [2]: 0% | ERYTHROCYTE COUNT [2]: 4.96 x10E6/uL | HEMATOCRIT [2]: 31.5% | HEMOGLOBIN [2]: 12.67 G/DL | LEUKOCYTE COUNT [2]: 6.07 x10E3/uL | LYMPHOCYTE [2]: 93% | MEAN CORPUSCULAR HEMOGLOBIN [2]: 25.5 pg | MEAN CORPUSCULAR HEMOGLOBIN CONCENTRATION [2]: 40.23 G/DL | MEAN CORPUSCULAR VOLUME [2]: 63.4 fL | MONOCYTE [2]: 0.67% | NEUTROPHIL [2]: 6.33% | NUCLEATED RED BLOOD CELLS [2]: 0 /100WBC | PLATELET COUNT [2]: 588.33 x10E3/uL | ALANINE AMINOTRANSFERASE [2]: 129 u/L | ALBUMIN [2]: 4.03 G/DL | ALKALINE PHOSPHATASE [2]: 429 u/L | ASPARTATE AMINOTRANSFERASE [2]: 337.67 u/L | BLOOD UREA NITROGEN [2]: 15 mg/dL | CARBON DIOXIDE [2]: 31 mmol/L | CHLORIDE [2]: 102 MEQ/L | CHOLESTEROL [2]: 104 mg/dL | CREATINE PHOSPHOKINASE [2]: 645 u/L | CREATININE [2]: 0.16 mg/dL | GLUCOSE [2]: 167.33 mg/dL | LACTATE DEHYDROGENASE [2]: 246.33 u/L | LIPASE [2]: 10.67 u/L | PHOSPHORUS [2]: 11.6 mg/dL | POTASSIUM [2]: 5.31 MEQ/L | SODIUM [2]: 144.2 MEQ/L | TOTAL BILIRUBIN [2]: 0.47 mg/dL | TOTAL PROTEIN [2]: 5.83 G/DL | URIC ACID [2]: 1.07 mg/dL | ABSOLUTE BASOPHIL [3]: 0 CELLS/uL | ABSOLUTE EOSINOPHIL [3]: 11.33 CELLS/uL | ABSOLUTE LYMPHOCYTE [3]: 4520 CELLS/uL | ABSOLUTE MONOCYTE [3]: 22.67 CELLS/uL | ABSOLUTE SEGMENTED NEUTROPHIL [3]: 46 CELLS/uL | BASOPHIL [3]: 0% | EOSINOPHIL [3]: 0.33% | ERYTHROCYTE COUNT [3]: 5.7 x10E6/uL | HEMATOCRIT [3]: 34.73% | HEMOGLOBIN [3]: 13.5 G/DL | LEUKOCYTE COUNT [3]: 4.6 x10E3/uL | LYMPHOCYTE [3]: 98% | MEAN CORPUSCULAR HEMOGLOBIN [3]: 23.7 pg | MEAN CORPUSCULAR HEMOGLOBIN CONCENTRATION [3]: 38.87 G/DL | MEAN CORPUSCULAR VOLUME [3]: 61.03 fL | MONOCYTE [3]: 0.67% | NEUTROPHIL [3]: 1% | NUCLEATED RED BLOOD CELLS [3]: 0.33 /100WBC | PLATELET COUNT [3]: 95.67 x10E3/uL | ALANINE AMINOTRANSFERASE [3]: 423.33 u/L | ALBUMIN [3]: 3.6 G/DL | ALKALINE PHOSPHATASE [3]: 438.67 u/L | ASPARTATE AMINOTRANSFERASE [3]: 923 u/L | BLOOD UREA NITROGEN [3]: 14.67 mg/dL | CARBON DIOXIDE [3]: 33 mmol/L | CHLORIDE [3]: 96 MEQ/L | CHOLESTEROL [3]: 192.33 mg/dL | CREATINE PHOSPHOKINASE [3]: 622.67 u/L | CREATININE [3]: 0.1 mg/dL | GLUCOSE [3]: 121 mg/dL | LACTATE DEHYDROGENASE [3]: 415 u/L | LIPASE [3]: 10.67 u/L | PHOSPHORUS [3]: 10.6 mg/dL | POTASSIUM [3]: 5.16 MEQ/L | SODIUM [3]: 141.4 MEQ/L | TOTAL BILIRUBIN [3]: 5.67 mg/dL | TOTAL PROTEIN [3]: 5.83 G/DL | URIC ACID [3]: 0.7 mg/dL
